Where two headings read alike, the source gives them in different places.

The conditions of series [1]: 0.2 wt. % Tween 20. As to the method:
A 30 wt. % nicotine HCl solution is prepared in water. To that solution is added 0.1 wt. % hydroxyethyl cellulose and 0.2 wt. % of the surfactant Tween 20. The coating solution is then applied to the microprojections using the coating methods described in U.S. Publication No. 2002/0132054.
(§1) An aqueous solution consisting of 5 wt. % nicotine base, 5 wt. % hydroxypropyl methylcellulose (HPMC, Methocel E5 premium LV EP JP, Dow Chemical Company, Midland Mich.) and 0.2 wt. % Tween 20 is prepared. The coating solution is then applied to the microprojections using the coating methods described in U.S. Publication No. 2002/0132054.

The conditions of series [2]: 2 cm^2 device coated with ca. 300 micrograms nicotine HCl, applied in humans with applicator.
For series [3] the following is noted: 2 cm^2 device coated with ca. 400 micrograms nicotine base; essentially immediate delivery on application to the skin. How it is done:
as §1

The procedure of series [4]:
An aqueous solution containing 40 wt. % nicotine hydrogen tartrate was prepared. Sufficient fluorescein was added to the solution to generate a 0.001 M concentration. This agent was used to assess the quality of the coating after drying.
A strip of titanium foil was prepared by washing the surface with acetone and drying. Five microliters of the coating solution (or formulation) was applied and dried for four hours at room temperature.

Take `CN1CCCC1c1cccnc1.Cl` (stereo not drawn) [nicotine HCl]: the “coating distribution across the projections” value in series [1] (30 wt. % nicotine HCl in water, 0.1 wt. % hydroxyethyl cellulose) is given as “well distributed across the projections”. Also, the “delivery of the nicotine contained on the projections” value in series [2] was “more than 70%”.

Take `CN1CCC[C@H]1c1cccnc1` [nicotine base]: in series [1] (aqueous 5 wt. % nicotine base, 5 wt. % HPMC), the “coating distribution across the projections” value is recorded as “well distributed across the projections”. The “amount of nicotine base delivered to the user” value in series [3] was 300 micrograms.

Regarding `CN1CCCC1c1cccnc1.O=C(O)C(O)C(O)C(=O)O` (stereo not drawn) [nicotine hydrogen tartrate], the “quality of the coating” value in series [4] (aqueous 40 wt. % nicotine hydrogen tartrate with 0.001 M fluorescein, 5 microliters on titanium foil, dried four hours at room temperature, no wetting agent) is “very poor”; in series [4] (same coating solution with 0.1 wt. % hydroxyethyl cellulose added) it was “noticeably improved”.
